Assay [1] relates to Wnt activity (Wnt-responsive human Sp5 promoter, TCF/LEF binding sites) in SW480 colon carcinoma cells. The assay is described as follows: Wnt activity screening assay: Sp5-Luc luciferase reporter gene in SW480 cells. It is filed as cell-based. To be noted: for EC50: 10-point dose-response from 10 μM, incubated overnight; for inhibition at 10 µM: given for EC50 of >10 μM, read-out: percent inhibition at 10 μM. The method in brief: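 Luminescence read-out (BrightGlo) from stable Sp5-Luc SW480 cells, normalized to DMSO-only wells. Cells were treated overnight at 37° C in 1% FBS medium across a 1:3, 10-point series starting at 10 μM. EC50 from variable-slope four-parameter regression; percent inhibition at 10 μM given where EC50 >10 μM.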

For assay [2], the system named is Primary human fibroblasts derived from IPF patients (LL29 cells) treated with TGF-β1. The assay is described as follows: Inhibition of the fibrotic process: αSMA staining in TGF-β1 treated fibroblasts. It is filed as cell-based. To be noted: Fibroblast, 96 h, LL29 fibroblasts treated with TGF-β1, 4 days; for inhibition at 10 µM: read-out: percent inhibition in brackets beside EC50 >10 μM. The procedure, abridged: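 LL29 IPF-patient lung fibroblasts in 1% FBS F12 were given compounds (11-point, 10 μM to […], 0.1% DMSO) plus TGF-β1 20 ng/mL for 4 days at 37 °C. αSMA-positive fraction of live (SYTOX-negative) cells was imaged and normalized to TGF-β1/DMSO wells. EC50 by non-linear regression, or % inhibition at 10 μM if >10 μM.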

`NC1CN(c2cncc(-c3ccc4[nH]nc(-c5nc6c(-c7cccc(F)c7)nccc6[nH]5)c4n3)n2)C1` [Compound 510, 1-(6-(3-(4-(3-Fluorophenyl)-1H-imidazo[4,5-c]pyridin-2-yl)-1H-pyrazolo [4,3-b]pyridin-5-yl)pyrazin-2-yl)azetidin-3-amine]: in assay [1], the EC50 is over 10 µM and the inhibition at 10 µM worked out at 16.3%. Also, in assay [2], the EC50 was over 10 µM and the inhibition at 10 µM was determined as 10.3%.

Regarding `Fc1cccc(-c2nccc3[nH]c(-c4n[nH]c5ccc(-c6cnccn6)nc45)nc23)c1` [Compound 520, 3-(4-(3-Fluorophenyl)-1H-imidazo[4,5-c]pyridin-2-yl)-5-(pyrazin-2-yl)-1H-pyrazolo[4,3-b]pyridine], in assay [1], the EC50 is over 10 µM and the inhibition at 10 µM stood at 12.2%. In addition, in assay [2], the EC50 is over 10 µM and the inhibition at 10 µM was determined as 2.4%.

`c1cc(-c2nccc3[nH]c(-c4n[nH]c5ccc(-c6cnccn6)nc45)nc23)ccn1` [Compound 584, 5-(Pyrazin-2-yl)-3-(4-(pyridin-4-yl)-1H-imidazo[4,5-c]pyridin-2-yl)-1H-pyrazolo[4,3-b]pyridine]: in assay [1], the EC50 is over 10 µM and the inhibition at 10 µM amounted to 5.7%. For the same compound, in assay [2], the EC50 is over 10 µM and the inhibition at 10 µM was found to be 0%.

With `CN(C)Cc1cncc(-c2ccc3[nH]nc(-c4nc5c(-c6cccc(F)c6)nccc5[nH]4)c3n2)c1` [Compound 13, 1-(5-(3-(4-(3-Fluorophenyl)-1H-imidazo[4,5-c]pyridin-2-yl)-1H-pyrazolo [4,3-b]pyridin-5-yl)pyridin-3-yl)-N,N-dimethylmethanamine], the values for the EC50 in assay [1] and in assay [2] were 1.06 µM and 1.69 µM, respectively.

`Cc1ccc(-c2nccc3[nH]c(-c4n[nH]c5ccc(-c6cncc(NC(=O)C(C)C)c6)nc45)nc23)s1` [Compound 401, N-(5-(3-(4-(5-Methylthiophen-2-yl)-1H-imidazo[4,5-c]pyridin-2-yl)-1H-pyrazolo [4,3-b]pyridin-5-yl)pyridin-3-yl)isobutyramide]: in assay [1], the EC50 is over 10 µM and the inhibition at 10 µM is 17.2%. It took 2.52 µM to reach a half-maximal effect in assay [2] (EC50).

With `COc1cncc(-c2ccc3[nH]nc(-c4nc5c(-c6cccc(F)c6)nccc5[nH]4)c3n2)c1` [Compound 516, 3-(4-(3-Fluorophenyl)-1H-imidazo[4,5-c]pyridin-2-yl)-5-(5-methoxypyridin-3-yl)-1H-pyrazolo[4,3-b]pyridine], the EC50 in assay [1] was 1.28 µM; in assay [2], 0.093 µM.

As to `c1ccc(COc2cncc(-c3ccc4[nH]nc(-c5nc6c(-c7ccncc7)nccc6[nH]5)c4n3)c2)cc1` [Compound 582, 5-(5-(Benzyloxy)pyridin-3-yl)-3-(4-(pyridin-4-yl)-1H-imidazo[4,5-c]pyridin-2-yl)-1H-pyrazolo[4,3-b]pyridine], the EC50 in assay [1] and in assay [2] was over 10 µM throughout. Moreover, the inhibition at 10 µM amounted to 18.1% in assay [1] and 0% in assay [2].

Take `CN(C)Cc1cncc(-c2ccc3[nH]nc(-c4nc5c(-c6cccs6)nccc5[nH]4)c3n2)c1` [Compound 349, N,N-dimethyl-1-(5-(3-(4-(thiophen-2-yl)-1H-imidazo[4,5-c]pyridin-2-yl)-1H-pyrazolo[4,3-b]pyridin-5-yl)pyridin-3-yl)methanamine]: the figures for the EC50 in assay [1] and in assay [2] were 8.02 µM and 2.63 µM, respectively.

For the compound `CC(C)Nc1cncc(-c2ccc3[nH]nc(-c4nc5c(-c6cc(F)cc(NCCN(C)C)c6)nccc5[nH]4)c3n2)c1` [Compound 460, N^1-(3-Fluoro-5-(2-(5-(5-(isopropylamino)pyridin-3-yl)-1H-pyrazolo[4,3-b]pyridin-3-yl)-1H-imidazo[4,5-c]pyridin-4-yl)phenyl)-N^2,N^2-dimethylethane-1,2-diamine], the figures for the EC50 in assay [1] and in assay [2] were 1.03 µM and 0.732 µM, respectively.

As for `c1cc2[nH]c(-c3n[nH]c4ccc(-c5cncc(OCCN6CCCC6)c5)nc34)nc2c(N2CCCCC2)n1` [Compound 610, 3-(4-(Piperidin-1-yl)-1H-imidazo[4,5-c]pyridin-2-yl)-5-(5-(2-(pyrrolidin-1-yl)ethoxy)pyridin-3-yl)-1H-pyrazolo[4,3-b]pyridine], the EC50 in assay [1] and in assay [2] was over 10 µM throughout. In addition, the inhibition at 10 µM was 46.2% in assay [1] and 0% in assay [2].

For `Cc1cn(-c2nccc3[nH]c(-c4n[nH]c5ccc(-c6cncc(OCCN(C)C)c6)nc45)nc23)cn1` [Compound 627, N,N-Dimethyl-2-((5-(3-(4-(4-methyl-1H-imidazol-1-yl)-1H-imidazo[4,5-c]pyridin-2-yl)-1H-pyrazolo[4,3-b]pyridin-5-yl)pyridin-3-yl)oxy)ethan-1-amine], in assay [1], the EC50 was over 10 µM and the inhibition at 10 µM was found to be 11.8%. In addition, the EC50 in assay [2] came out at 4.37 µM.

For `CS(=O)(=O)NCc1cc(F)cc(-c2nccc3[nH]c(-c4n[nH]c5ccc(-c6cncc(NC(=O)c7ccccc7)c6)nc45)nc23)c1` [Compound 487, N-(5-(3-(4-(3-Fluoro-5-(methylsulfonamidomethyl)phenyl)-1H-imidazo[4,5-c]pyridin-2-yl)-1H-pyrazolo[4,3-b]pyridin-5-yl)pyridin-3-yl)benzamide], in assay [1], the EC50 was over 10 µM and the inhibition at 10 µM was determined as 0%. In assay [2], the EC50 is over 10 µM and the inhibition at 10 µM stood at 0%.

For `CCNCc1cncc(-c2ccc3[nH]nc(-c4nc5c(-c6cc(F)cc(NCCN(C)C)c6)nccc5[nH]4)c3n2)c1` [Compound 454, N^1-(3-(2-(5-(5-((Ethylamino)methyl)pyridin-3-yl)-1H-pyrazolo[4,3-b]pyridin-3-yl)-1H-imidazo[4,5-c]pyridin-4-yl)-5-fluorophenyl)-N^2,N^2-dimethylethane-1,2-diamine], the EC50 in assay [1] came out at 9.95 µM; in assay [2], 3.68 µM.

Turning to `Fc1cccc(-c2nccc3[nH]c(-c4n[nH]c5ccc(-c6cn[nH]c6)nc45)nc23)c1` [Compound 507, 3-(4-(3-Fluorophenyl)-1H-imidazo[4,5-c]pyridin-2-yl)-5-(1H-pyrazol-4-yl)-1H-pyrazolo[4,3-b]pyridine], the EC50 in assay [1] and in assay [2] was over 10 µM each time. Moreover, the inhibition at 10 µM in assay [1] amounted to 15%; in assay [2] it was 9.9%.

For the compound `Oc1cncc(-c2ccc3[nH]nc(-c4nc5c(-c6cccnc6)nccc5[nH]4)c3n2)c1` [Compound 565, 5-(3-(4-(Pyridin-3-yl)-1H-imidazo[4,5-c]pyridin-2-yl)-1H-pyrazolo[4,3-b]pyridin-5-yl)pyridin-3-ol], the figures for the EC50 in assay [1] and in assay [2] were 0.456 µM and 0.797 µM, respectively.

In the case of `CN(C)c1cncc(-c2ccc3[nH]nc(-c4nc5c(-c6cccc(F)c6)nccc5[nH]4)c3n2)c1` [Compound 7], the EC50 in assay [1] was 0.379 µM; in assay [2] it was 0.387 µM.

As to `Cc1ccc(-c2nccc3[nH]c(-c4n[nH]c5ccc(-c6cncc(NC(=O)C7CCCC7)c6)nc45)nc23)s1` [Compound 414, N-(5-(3-(4-(5-Methylthiophen-2-yl)-1H-imidazo[4,5-c]pyridin-2-yl)-1H-pyrazolo[4,3-b]pyridin-5-yl)pyridin-3-yl)cyclopentanecarboxamide], the EC50 in assay [1] and in assay [2] was over 10 µM each time. Besides, the inhibition at 10 µM in assay [1] is 23.8%; in assay [2], 46.2%.

With `O=C(CC1CCNCC1)Nc1cncc(-c2ccc3[nH]nc(-c4nc5c(-c6ccccn6)nccc5[nH]4)c3n2)c1` [Compound 593, 2-(Piperidin-4-yl)-N-(5-(3-(4-(pyri-2-yl)-1H-imidazo[4,5-c]pyridin-2-yl)-1H-pyrazolo[4,3-b]pyridin-5-yl)pyridin-3-yl)acetamide], in assay [1], the EC50 was over 10 µM and the inhibition at 10 µM is 31.4%. Also, the EC50 in assay [2] was 1.57 µM.

With `Fc1cccc(-c2nccc3[nH]c(-c4n[nH]c5ccc(C6=CCNCC6)nc45)nc23)c1` [Compound 506, 3-(4-(3-Fluorophenyl)-1H-imidazo[4,5-c]pyridin-2-yl)-5-(1,2,3,6-tetrahydropyridin-4-yl)-1H-pyrazolo[4,3-b]pyridine], the EC50 in assay [1] was over 10 µM; in assay [2], 1.17 µM. Also, the inhibition at 10 µM in assay [1] amounted to 17.6%.

As to `Fc1cccc(-c2nccc3[nH]c(-c4n[nH]c5ccc(-c6ccncc6)nc45)nc23)c1` [Compound 18, 3-(4-(3-Fluorophenyl)-1H-imidazo[4,5-c]pyridin-2-yl)-5-(pyridin-4-yl)-1H-pyrazolo[4,3-b]pyridine], the results for the EC50 in assay [1] and in assay [2] were 0.843 µM and 4.21 µM, respectively.

The record behind these values is patent US10195185B2, “3-(1H-imidazo[4,5-C]pyridin-2-yl)-1H-pyrazolo[4,3-B]pyridines and therapeutic uses thereof” (Samumed, LLC, priority 2015, dated 2019).
